From patent US20190083498A1, “THERAPIES FOR HEMATOLOGIC MALIGNANCIES” (GILEAD CALISTOGA LLC, priority 2008, published 2019)

What was measured:
[1] = tested on: LB and INA-6 MM cells with BMSCs; test: Paracrine MM cell growth, cytokine secretion and signaling with BMSCs; format: cell-based, human; details: 48 h
Description: MM cells (2×10^4 cells/well) were cultured for 48 h in BMSC coated 96-well plates (Costar, Cambridge, Mass.), in the presence or absence of drug. DNA synthesis was measured by [3H]-thymidine (Perkin-Elmer, Boston, Mass.) uptake, with [3H]-thymidine (0.5μ Ci/well) added during the last 8 h of 48 h cultures. All experiments were performed in quadruplicate.
Cytokine secretion by human BMSCs cocultured with MM cells was assessed by ELISA. […] After 48 h, supernatants were harvested and stored at −80° C. Cytokines were measured using Duo set ELISA Development Kits (R&D Systems, Minneapolis, Minn.). All measurements were carried out in triplicate.
The cytokine levels in culture supernatants were assessed using Proteome Profiler Antibody Arrays Panel A (R&D Systems, Minneapolis, Minn.), Supernatants from co-cultures with BMSCs were incubated for 4 hours with membranes arrayed with Abs against 37 cytokines, according to manufacturer's instructions.
DNA synthesis was determined by [3H]-thymidine incorporation. Data represent means (±SD) of triplicate cultures.
Error bars indicate SD (±).
INA-6 cells cultured with or without BMSCs were treated with compound for 48 h. Total cell lysates were subjected to immunoblotting using indicated antibodies, FIG. 34F. Actin was used as a loading control.

primary MCL cells = test: Constitutive PI3K signaling in primary MCL cells; format: cell-based, human; details: two patients; dose dependent; 0.1 μM or 1 μM
LB cells = test: LB cell proliferation with or without BMSCs, [3H]-thymidine uptake; format: cell-based, human; details: 0.625 μM-10 μM, 48 hours
Description: LB cells were cultured with control media, and with the compound of formula I for 48 hours, in the presence or absence of BMSCs. Cell proliferation was assessed using [^3H]-thymidine uptake assay. All data represent mean (±SD) of triplicate experiment.

over 350 protein kinases = test: Ambit KINOMEscan kinome-wide protein kinase screen; format: binding; details: 10 μM
Text: Examples of some kinases in the screen are shown below in Table 3.

LB and INA-6 MM cells = test: Growth inhibition of p110δ-positive MM cell lines, MTT; format: cell-based, human; details: 48 h
INA-6 and LB MM cells = test: Autophagy: LC3 accumulation, AVO acridine orange staining, LC3/beclin-1 western blot; format: cell-based, human
Text: Samples were examined under a fluorescence microscope.
Autophagosome formation was defined by the accumulation of LC3; arrows indicate autophagosomes, FIG. 33A.
GAPDH served as a loading control.

leukemia cell lines = test: Apoptosis in leukemia cell lines, Annexin V-FITC/7AAD; format: cell-based; details: 1 μM or 10 μM; 24 hrs
Description: The percentage of apoptotic cells was determined by Annexin V-FITC/7AAD staining.

[2] = tested on: Akt (Ser473) phosphorylation; test: Akt phosphorylation in ALL cell lines; format: cell-based
pAKT = pAKT in DLBCL cell lines; format: cell-based
[3] = tested on: T-ALL and B-ALL leukemic cell lines; test: Viability of ALL cell lines, AlamarBlue; format: cell-based; details: 48 hours
Description: Viability assays of cell lines were performed using the AlamarBlue assay (Invitrogen). Cells (1×10^6 per well) in a volume of 100 μL were placed in a 96-well flat-bottom plate and the compound of formula I (100 μL per well at 2× final concentration) or medium alone was added to the plates. All were performed in quadruplicate. Cells were incubated for fixed times (48 hours). After the incubation, 10 μL AlamarBlue® was added to each well. Cells were incubated for 4 hours and the optical density at 530-560 nm was obtained using a SpectraMax® M5 plate reader 2001. Cell viability was expressed as a percentage of absorption between treated cells/control sample.

[4] = tested on: IGROV-1 and OVCAR-3 cell lines; test: Proliferation of ovarian cancer cell lines, AlamarBlue; format: cell-based; details: IGROV-1 and OVCAR-3, with serum
Description: IGROV-1 and OVCAR-3 cell lines were grown in the presence of serum plus the indicated concentrations of the compound of formula I. Proliferation was measured in triplicate wells by AlamarBlue assay (Invitrogen) 96-well plates.

CLL cells = test: BH3 profiling, mitochondrial depolarization (JC-1); format: cell-based, human
Description: BH3 profiling: CLL patient peripheral blood, bone marrow, and lymph node samples were analyzed by either the plate-based fluorimetry or FACS method. Briefly, PBMCs from CLL patients were made into single cell suspensions and gently permeabilized using digitonin (0.002%). For the fluorimtery-based method, 100 μM JC-1 (Invitrogen) was added at this time and cells were then loaded onto a 384-well plate, with individual wells containing individual BH3-only peptides. The JC1-BH3 assays were then conducted in triplicate on a Tecan Safire 2 with Ex 545 +/−[…] and Em 590 +/−20 nm with a three-hour time course. For the FACS-based method, single cell suspensions from CLL patient PBMCs were stained using human Fc Block (BD Pharmingen) followed by anti-CD19-V450 (BD Pharmingen) and anti-CXCR4-APC (BD Pharmingen). […] JC-1 was measured from the 488-nm laser using a 530/30-nm filter (FITC) and a 585/42-nm filter (PE), and the degree of mitochondrial depolarization was calculated using the surrogate of the change in the median of PE signal. The mitochondrial depolarization reported in response to each BH3 peptide is normalized relative to the median percentage change in PE fluorescence of the JC-1 dye with a negative control, dimethyl sulfoxide (DMSO) (0%) and a positive control, the mitochondrial uncoupling agent carbonyl cyanide 4-(trifluoromethoxy)- phenylhydrazone (FCCP) (100%).

CC[C@H](Nc1ncnc2[nH]cnc12)c1nc2cccc(F)c2c(=O)n1-c1ccccc1 [Compound I, 5-fluoro-3-phenyl-2-[1-(9H-purin-6-ylamino)-propyl]-3H-quinazolin-4-one]
MM cell growth induced by BMSCs ([1]; 2.5, 5, 10 μM): inhibited
cytokine secretion induced by BMSCs ([1]; ELISA, cytokine arrays): inhibited
phosphorylation of AKT and ERK induced by BMSCs ([1]; INA-6 with BMSCs): inhibited
constitutive PI3K signaling in primary MCL cells (primary MCL cells): block constitutive PI3K signaling
LB cell growth in the presence of BMSC (LB cells): reduced
off target activity in kinome-wide protein kinase screen (over 350 protein kinases): failed to detect any activity
off target activity in kinome-wide protein kinase screen (over 350 protein kinases; listed as compound of formula I): little activity
cytotoxicity against p110δ-positive MM cells (LB and INA-6 MM cells): induced cytotoxicity
LC3 staining (immunofluorescence) (INA-6 and LB MM cells; 5 μM, 6 h, INA-6 and LB cells): markedly increased LC 3 staining
LC3-II and Beclin1 protein (INA-6 and LB MM cells; INA-6, 6 h): markedly increased
acidic vesicular organelles (acridine orange staining) (INA-6 and LB MM cells; LB and INA-6 cells): development of AVOs
apoptosis in leukemia cell lines (leukemia cell lines): induces apoptosis
Akt phosphorylation in ALL cell lines [2]: reduction in Akt phosphorylation
pAKT levels in DLBCL cell lines (pAKT): reduces pAKT levels
cellular viability of ALL cell lines [3]: significant reduction in cell viability
cellular viability of ALL cell lines ([3]; listed as compound I): substantial reduction in cellular viability
proliferation of ovarian cancer cell lines [4]: inhibits proliferation
mitochondrial priming of stroma-exposed CLL cells (CLL cells; 24 hours, p=0.075): increased mitochondrial priming
mitochondrial depolarization induced by BAD BH3 peptide and ABT-737 in treated CLL cells (CLL cells; p=0.046 and p=0.047): significantly more mitochondrial depolarization
